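Following 48 hours of exposure in 96-well plates, responses at five concentrations were used to interpolate endpoints linearly. Abbreviation: GI50, concentration required for 50% inhibition of growth.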 The source made the active and inactive calls. Cut-off read from the data, not from the text of the source: active = GI50 up to about 1.1 µM and inactive = higher.
Assays:
Experiment in all cases: NCI-60 cell line screen, 48 h
CAKI-1 = tested on: CAKI-1
CCRF-CEM = tested on: CCRF-CEM
HCC 2998 = tested on: HCC 2998
HCT-15 = tested on: HCT-15
HL-60 = tested on: HL-60
HOP-62 = tested on: HOP-62
HT-29 = tested on: HT-29
KM-20L2 = tested on: KM-20L2
LXFL 529 = tested on: LXFL 529
Malme-3M = tested on: Malme-3M
NCI-H23 = tested on: NCI-H23
OVCAR-4 = tested on: OVCAR-4
OVCAR-5 = tested on: OVCAR-5
OVCAR-8 = tested on: OVCAR-8
SF-539 = tested on: SF-539
SN12C = tested on: SN12C
SR = tested on: SR
SW-620 = tested on: SW-620
UACC-62 = tested on: UACC-62
MCF7 = tested on: MCF7

CC(=O)CCn1ncc(Cl)c(Cl)c1=O
GI50 (CAKI-1): 1.91 µM (inactive) | GI50 (CCRF-CEM): 21.9 µM (inactive) | GI50 (HCC 2998): 9.51 µM (inactive) | GI50 (HCT-15): 6.55 µM | GI50 (HL-60): 8.39 µM (inactive) | GI50 (HOP-62): 19.7 µM (inactive) | GI50 (HT-29): 14.1 µM (inactive) | GI50 (KM-20L2): 16.5 µM (inactive) | GI50 (LXFL 529): 13.4 µM (inactive) | GI50 (Malme-3M): 20.7 µM (inactive) | GI50 (NCI-H23): 15 µM (inactive) | GI50 (OVCAR-4): 9.95 µM (inactive) | GI50 (OVCAR-5): 19.1 µM (inactive) | GI50 (OVCAR-8): 23.2 µM (inactive) | GI50 (SF-539): 22.2 µM (inactive) | GI50 (SN12C): 14.3 µM (inactive) | GI50 (SR): 9.59 µM (inactive) | GI50 (SW-620): 19 µM (inactive) | GI50 (UACC-62): 17.2 µM (inactive)

N#CC(C(=O)C(=O)NCCCNC(=O)C(=O)C(C#N)c1ccccc1)c1ccccc1 (stereo not drawn)
GI50 (CAKI-1): 0.0167 µM (active) | GI50 (CCRF-CEM): > 100 µM (inactive) | GI50 (HCC 2998): > 100 µM (inactive) | GI50 (HCT-15): > 100 µM | GI50 (HL-60): > 100 µM (inactive) | GI50 (HOP-62): > 100 µM (inactive) | GI50 (HT-29): > 100 µM (inactive) | GI50 (KM-20L2): > 100 µM (inactive) | GI50 (LXFL 529): > 100 µM (inactive) | GI50 (Malme-3M): > 100 µM (inactive) | GI50 (NCI-H23): > 100 µM (inactive) | GI50 (OVCAR-4): > 100 µM (inactive) | GI50 (OVCAR-5): > 100 µM (inactive) | GI50 (OVCAR-8): > 100 µM (inactive) | GI50 (SF-539): > 100 µM (inactive) | GI50 (SN12C): > 100 µM (inactive) | GI50 (SR): > 100 µM (inactive) | GI50 (SW-620): > 100 µM (inactive) | GI50 (UACC-62): > 100 µM (inactive)

O=[N+]([O-])c1cc(I)cc(/C=N/NS(=O)(=O)c2ccc(F)cc2)c1O
GI50 (CAKI-1): 26.2 µM (inactive) | GI50 (CCRF-CEM): 22 µM (inactive) | GI50 (HCC 2998): 33 µM (inactive) | GI50 (HCT-15): 27.3 µM | GI50 (HL-60): 28.4 µM (inactive) | GI50 (HOP-62): 26.2 µM (inactive) | GI50 (HT-29): 18.7 µM (inactive) | GI50 (KM-20L2): 29.8 µM (inactive) | GI50 (LXFL 529): 20.7 µM (inactive) | GI50 (Malme-3M): 21.2 µM (inactive) | GI50 (NCI-H23): 20 µM (inactive) | GI50 (OVCAR-4): 38.5 µM (inactive) | GI50 (OVCAR-5): 39 µM (inactive) | GI50 (OVCAR-8): 23.6 µM (inactive) | GI50 (SF-539): 27.1 µM (inactive) | GI50 (SN12C): 22.9 µM (inactive) | GI50 (SR): 22.3 µM (inactive) | GI50 (SW-620): 32.4 µM (inactive) | GI50 (UACC-62): 20.3 µM (inactive)

Cc1ccc(S(=O)(=O)C2c3nc4ccccc4cc3-c3nc4ccccc4nc32)cc1 (stereo not drawn)
GI50 (CAKI-1): > 100 µM (inactive) | GI50 (CCRF-CEM): > 100 µM (inactive) | GI50 (HCC 2998): > 100 µM (inactive) | GI50 (HCT-15): > 100 µM | GI50 (HL-60): > 100 µM (inactive) | GI50 (HOP-62): > 100 µM (inactive) | GI50 (KM-20L2): > 100 µM (inactive) | GI50 (LXFL 529): > 100 µM (inactive) | GI50 (Malme-3M): > 100 µM (inactive) | GI50 (NCI-H23): > 100 µM (inactive) | GI50 (OVCAR-4): > 100 µM (inactive) | GI50 (OVCAR-5): > 100 µM (inactive) | GI50 (OVCAR-8): > 100 µM (inactive) | GI50 (SF-539): > 100 µM (inactive) | GI50 (SN12C): > 100 µM (inactive) | GI50 (SR): > 100 µM (inactive) | GI50 (SW-620): > 100 µM (inactive) | GI50 (UACC-62): > 100 µM (inactive)

O=C(NS(=O)(=O)c1ccccc1)C(Cc1ccccc1)C(Cc1ccccc1)C(=O)NS(=O)(=O)c1ccccc1 (stereo not drawn)
GI50 (CAKI-1): > 100 µM (inactive) | GI50 (CCRF-CEM): > 100 µM (inactive) | GI50 (HCC 2998): > 100 µM (inactive) | GI50 (HL-60): > 100 µM (inactive) | GI50 (HOP-62): > 100 µM (inactive) | GI50 (HT-29): > 100 µM (inactive) | GI50 (KM-20L2): > 100 µM (inactive) | GI50 (LXFL 529): > 100 µM (inactive) | GI50 (Malme-3M): > 100 µM (inactive) | GI50 (NCI-H23): > 100 µM (inactive) | GI50 (OVCAR-4): > 100 µM (inactive) | GI50 (OVCAR-5): > 100 µM (inactive) | GI50 (OVCAR-8): > 100 µM (inactive) | GI50 (SF-539): > 100 µM (inactive) | GI50 (SN12C): > 100 µM (inactive) | GI50 (SR): > 100 µM (inactive) | GI50 (SW-620): > 100 µM (inactive) | GI50 (UACC-62): > 100 µM (inactive)

Cc1nc2cc3nc4ccccc4c(O)c3cc2s1
GI50 (CAKI-1): > 100 µM (inactive) | GI50 (CCRF-CEM): > 100 µM (inactive) | GI50 (HCC 2998): > 100 µM (inactive) | GI50 (HCT-15): > 100 µM | GI50 (HL-60): > 100 µM (inactive) | GI50 (HOP-62): > 100 µM (inactive) | GI50 (HT-29): > 100 µM (inactive) | GI50 (KM-20L2): > 100 µM (inactive) | GI50 (LXFL 529): > 100 µM (inactive) | GI50 (Malme-3M): > 100 µM (inactive) | GI50 (NCI-H23): > 100 µM (inactive) | GI50 (OVCAR-4): > 100 µM (inactive) | GI50 (OVCAR-5): > 100 µM (inactive) | GI50 (OVCAR-8): > 100 µM (inactive) | GI50 (SF-539): > 100 µM (inactive) | GI50 (SN12C): > 100 µM (inactive) | GI50 (SR): > 100 µM (inactive) | GI50 (SW-620): > 100 µM (inactive) | GI50 (UACC-62): > 100 µM (inactive)

COc1ccc(Nc2nnc(-c3nsc4ccccc34)s2)cc1
GI50 (CAKI-1): 54.5 µM (inactive) | GI50 (CCRF-CEM): 34.7 µM (inactive) | GI50 (HCC 2998): > 56.4 µM (inactive) | GI50 (HCT-15): 62.8 µM | GI50 (HL-60): > 70.1 µM (inactive) | GI50 (HOP-62): 8.26 µM (inactive) | GI50 (HT-29): 39 µM (inactive) | GI50 (KM-20L2): > 100 µM (inactive) | GI50 (LXFL 529): > 100 µM (inactive) | GI50 (MCF7): 81.3 µM (inactive) | GI50 (NCI-H23): > 100 µM (inactive) | GI50 (OVCAR-4): 2.47 µM (inactive) | GI50 (OVCAR-5): > 100 µM (inactive) | GI50 (OVCAR-8): 49.8 µM (inactive) | GI50 (SF-539): 31.8 µM (inactive) | GI50 (SN12C): > 61.4 µM (inactive) | GI50 (SR): 39.9 µM (inactive) | GI50 (SW-620): > 72.9 µM (inactive) | GI50 (UACC-62): > 100 µM (inactive)

CN1CCn2c(Br)ccc2C1=O
GI50 (CAKI-1): > 100 µM (inactive) | GI50 (CCRF-CEM): > 100 µM (inactive) | GI50 (HCC 2998): > 100 µM (inactive) | GI50 (HCT-15): > 100 µM | GI50 (HL-60): > 100 µM (inactive) | GI50 (HOP-62): > 100 µM (inactive) | GI50 (HT-29): > 100 µM (inactive) | GI50 (KM-20L2): > 100 µM (inactive) | GI50 (LXFL 529): > 100 µM (inactive) | GI50 (Malme-3M): > 100 µM (inactive) | GI50 (NCI-H23): > 100 µM (inactive) | GI50 (OVCAR-4): > 100 µM (inactive) | GI50 (OVCAR-8): > 100 µM (inactive) | GI50 (SF-539): > 100 µM (inactive) | GI50 (SN12C): > 100 µM (inactive) | GI50 (SR): > 100 µM (inactive) | GI50 (SW-620): > 100 µM (inactive) | GI50 (UACC-62): > 100 µM (inactive)

O=[N+]([O-])c1ccc(-c2csc(=[N+]3CCCCC3)s2)cc1
GI50 (CAKI-1): 75.7 µM (inactive) | GI50 (CCRF-CEM): 4.91 µM (inactive) | GI50 (HCC 2998): 21.1 µM (inactive) | GI50 (HCT-15): 29.2 µM | GI50 (HL-60): > 53.2 µM (inactive) | GI50 (HOP-62): 3.1 µM (inactive) | GI50 (HT-29): 6.04 µM (inactive) | GI50 (KM-20L2): 6.1 µM (inactive) | GI50 (LXFL 529): 5.93 µM (inactive) | GI50 (Malme-3M): 12.1 µM (inactive) | GI50 (NCI-H23): 4.41 µM (inactive) | GI50 (OVCAR-4): 18.5 µM (inactive) | GI50 (OVCAR-5): 9.75 µM (inactive) | GI50 (OVCAR-8): 3.48 µM (inactive) | GI50 (SF-539): 19.8 µM (inactive) | GI50 (SN12C): 4.48 µM (inactive) | GI50 (SR): 11.1 µM (inactive) | GI50 (SW-620): 13.2 µM (inactive) | GI50 (UACC-62): 34.4 µM (inactive)

Source: ChEMBL document CHEMBL1201862, “PubChem BioAssay data set” (2004)
